# Source: US11530244B2, “Cyclic polypeptides for PCSK9 inhibition” (priority 2018, dated 2022)
# Starred links: 1 amine or outer side, 2 acyl side, 3 side chain; linkers in the order of their positions; H or OH if unused. Positions of bridges follow the written chain, without caps; N, C: chain ends. Non-standard residues stand in square brackets, D forms with d. Residues, ends and D or L forms follow the SMILES beside them. 2Furoyl(5-aminomethyl) = O=C(c1ccc(CN[*:1])o1)[*:2]; NHCH2C6H4(p)CH2CH2NH = c1cc(CN[*:1])ccc1CCN[*:2]; X61 = O=C(CCCCC(=O)[*:1])NCc1ccc(CC(=O)[*:2])cc1; Ala(imidazol-2-yl) = N[C@@H](Cc1ncc[nH]1)C(=O)O; Trp(5-OH) = N[C@@H](Cc1c[nH]c2ccc(O)cc12)C(=O)O; Phe(4-COOH) = N[C@@H](Cc1ccc(C(=O)O)cc1)C(=O)O; Trp(5-F) = N[C@@H](Cc1c[nH]c2ccc(F)cc12)C(=O)O; Phac(3-amino) = O=C(Cc1cccc(N[*:1])c1)[*:2]; Nle(6-COOH) = N[C@@H](CCCCC(=O)O)C(=O)O; X4 = O=C(CCSCc1cccc(CSCCN[*:1])c1)[*:2]; mXylylene = c1cc(C[*:1])cc(C[*:2])c1; AEF = NCCOc1ccc(C[C@H](N)C(=O)O)cc1; Adipoyl = O=C(CCCCC(=O)[*:2])[*:1]; X34 = O=C(CCC1CCN([*:1])CC1)[*:2]; Asu = N[C@@H](CCCCCC(=O)O)C(=O)O; Aad = N[C@@H](CCCC(=O)O)C(=O)O; αMeP = C[C@@]1(C(=O)O)CCCN1; dOrn = NCCC[C@@H](N)C(=O)O; Dab = NCC[C@H](N)C(=O)O; Dap = NC[C@H](N)C(=O)O; X2 = O=C(C[*:2])[*:1]; AEA = NCCOCC(=O)O; Mpa = O=C(O)CCS
# Target: PCSK9 (Homo sapiens (Human), UniProt Q8NBP7)
# Experiment: PCSK9 Alexa FRET Standard assay (displacement of AlexaFluor647 tagged cyclic peptide Reagent A)
# Assay type: binding
# Settings: PCSK9 Alexa FRET Standard assay, 0.5 nM PCSK9, 20 nM AF cyclic peptide Reagent A; read-out: IC50
# Summary of the method: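 TR-FRET displacement: 0.5 nM biotinylated PCSK9 with 1.25 nM Strep-Eu and 20 nM AlexaFluor-tagged cyclic peptide (final) in 50 mM HEPES pH 7.4, 0.15 M NaCl, 5 mM CaCl2, 0.01% BSA, 0.01% P20, ≥2 h at room temperature. IC50 from sigmoidal fit, converted to Ki via peptide KD; falling Eu counts flagged false positives.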
# PCSK9, sequence (Q8NBP7 153-692): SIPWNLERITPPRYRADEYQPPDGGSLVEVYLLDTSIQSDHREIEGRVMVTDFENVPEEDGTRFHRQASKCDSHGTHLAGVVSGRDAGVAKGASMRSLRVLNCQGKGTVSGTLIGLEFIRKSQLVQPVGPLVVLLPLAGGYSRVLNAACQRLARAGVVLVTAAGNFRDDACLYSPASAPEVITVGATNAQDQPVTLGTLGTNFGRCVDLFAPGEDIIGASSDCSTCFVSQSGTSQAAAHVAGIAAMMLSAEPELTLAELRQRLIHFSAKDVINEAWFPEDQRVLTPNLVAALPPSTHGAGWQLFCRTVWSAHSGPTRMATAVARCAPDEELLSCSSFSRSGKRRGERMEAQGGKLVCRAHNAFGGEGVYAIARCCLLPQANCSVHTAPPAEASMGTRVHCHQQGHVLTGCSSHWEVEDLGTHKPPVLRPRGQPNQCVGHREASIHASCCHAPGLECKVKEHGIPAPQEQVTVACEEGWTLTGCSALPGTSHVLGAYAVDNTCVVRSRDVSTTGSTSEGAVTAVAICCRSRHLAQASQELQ
row,SMILES,IC50
1,CC(=O)N[C@H]1CCNC(=O)COc2ccc(cc2)C[C@@H](C(N)=O)NC(=O)[C@]2(C)CCCN2C(=O)[C@H](Cc2ccc(O)cc2)NC(=O)[C@H](Cc2cnc[nH]2)NC(=O)[C@H](CC(=O)O)NC(=O)[C@H](Cc2c[nH]c3ccc(F)cc23)NC(=O)[C@H](Cc2c[nH]c3ccc(F)cc23)NC(=O)CNC(=O)[C@H](C)NC1=O [Compound 352] (Ac-[Dab]AG[Trp(5-F)][Trp(5-F)]DHY[αMeP]Y-NH2; linker 1-10 via X2),21 to 50 µM
2,COc1ccc(C[C@@H]2NC(=O)[C@H](Cc3cnc[nH]3)NC(=O)[C@H](CC(=O)O)NC(=O)[C@H](Cc3c[nH]c4cc(F)ccc34)NC(=O)[C@H](Cc3c[nH]c4ccc(F)cc34)NC(=O)[C@@H](C)NC(=O)[C@H](CCCCN)NC(=O)CCc3cn(nn3)-c3ccc(cc3)C[C@@H](C(N)=O)NC(=O)[C@]3(C)CCCN3C2=O)cc1 [Compound 368],21 to 50 µM
3,COc1ccc(C[C@@H]2NC(=O)[C@H](Cc3cnc[nH]3)NC(=O)[C@H](CC(=O)O)NC(=O)[C@H](Cc3c[nH]c4ccc(F)cc34)NC(=O)[C@H](Cc3c[nH]c4ccc(F)cc34)NC(=O)[C@@H](C)NC(=O)CCC3CCN(CC3)C(=O)c3ccc(cc3)C[C@@H](C(N)=O)NC(=O)[C@]3(C)CCCN3C2=O)cc1 [Compound 389] ([X34][dA][Trp(5-F)][Trp(5-F)]DHY(Me)[αMeP][Phe(4-COOH)]-NH2; lactam N-9),21 to 50 µM
4,COc1ccc(C[C@@H]2NC(=O)[C@H](Cc3cnc[nH]3)NC(=O)[C@H](CC(=O)O)NC(=O)[C@H](Cc3c[nH]c4ccc(F)cc34)NC(=O)[C@H](Cc3c[nH]c4ccc(F)cc34)NC(=O)[C@@H](C)NC(=O)CCCCC(=O)NCCOc3ccc(cc3)C[C@@H](C(N)=O)NC(=O)[C@]3(C)CCCN3C2=O)cc1 [Compound 410] ([dA][Trp(5-F)][Trp(5-F)]DHY(Me)[αMeP][AEF]-NH2; linker N-8 via Adipoyl),1 to 12.1 µM
5,COc1ccc(C[C@@H]2NC(=O)[C@H](Cc3cnc[nH]3)NC(=O)[C@H](CC(=O)O)NC(=O)[C@H](Cc3c[nH]c4ccc(F)cc34)NC(=O)[C@H](Cc3c[nH]c4ccc(F)cc34)NC(=O)[C@@H](C)NC(=O)[C@H](CCCCN)NC(=O)[C@@H](NC(C)=O)CC(=O)NCc3ccc(cc3)CCNC(=O)[C@]3(C)CCCN3C2=O)cc1 [Compound 411] (Ac-DK[dA][Trp(5-F)][Trp(5-F)]DHY(Me)[αMeP]; linker 1-C via NHCH2C6H4(p)CH2CH2NH),1 to 12.1 µM
6,COc1ccc(C[C@@H]2NC(=O)[C@H](Cc3cnc[nH]3)NC(=O)[C@H](CC(=O)O)NC(=O)[C@H](Cc3c[nH]c4ccc(F)cc34)NC(=O)[C@H](Cc3c[nH]c4ccc(F)cc34)NC(=O)[C@@H](C)NC(=O)CCCCC(=O)NCc3ccc(cc3)CC(=O)NC[C@@H](C(N)=O)NC(=O)[C@]3(C)CCCN3C2=O)cc1 [Compound 412] ([dA][Trp(5-F)][Trp(5-F)]DHY(Me)[αMeP][Dap]-NH2; linker N-8 via X61),1 to 12.1 µM
7,CC(=O)N[C@@H]1CCCC/C=C/CO[C@H]2C[C@@H](C(N)=O)N(C2)C(=O)[C@H](Cc2ccc(O)cc2)NC(=O)[C@H](Cc2cnc[nH]2)NC(=O)[C@H](CC(=O)O)NC(=O)[C@H](Cc2c[nH]c3ccc(F)cc23)NC(=O)[C@H](Cc2c[nH]c3ccc(F)cc23)NC(=O)CCNC1=O [Compound 418],21 to 50 µM
8,COc1ccc(C[C@@H]2NC(=O)[C@H](Cc3cnc[nH]3)NC(=O)[C@H](CC(=O)O)NC(=O)[C@H](Cc3c[nH]c4ccc(F)cc34)NC(=O)[C@H](Cc3c[nH]c4ccc(F)cc34)NC(=O)[C@@H](C)NC(=O)[C@H](CCCCN)NC(=O)[C@@H](NC(C)=O)CCC(=O)NCc3ccc(cc3)CCNC(=O)[C@]3(C)CCCN3C2=O)cc1 [Compound 421] (Ac-EK[dA][Trp(5-F)][Trp(5-F)]DHY(Me)[αMeP]; linker 1-C via NHCH2C6H4(p)CH2CH2NH),0.1 to 1 µM
9,COc1ccc(C[C@@H]2NC(=O)[C@H](Cc3cnc[nH]3)NC(=O)[C@H](CC(=O)O)NC(=O)[C@H](Cc3c[nH]c4ccc(F)cc34)NC(=O)[C@H](Cc3c[nH]c4ccc(F)cc34)NC(=O)[C@@H](C)NC(=O)[C@H](CNC(=O)COCCN)NC(=O)CCSCc3cccc(c3)CSCCNC(=O)[C@]3(C)CCCN3C2=O)cc1 [Compound 424] (cyclo(DHY(Me)[αMeP][X4][Dap](AEA)[dA][Trp(5-F)][Trp(5-F)])),0.00011 to 0.1 µM
10,COc1ccc(C[C@@H]2NC(=O)[C@H](Cc3cnc[nH]3)NC(=O)[C@H](CC(=O)O)NC(=O)[C@H](Cc3c[nH]c4ccc(F)cc34)NC(=O)[C@H](Cc3c[nH]c4ccc(F)cc34)NC(=O)[C@@H](C)NC(=O)[C@H](CCCCC(=O)O)NC(=O)CCSCc3cccc(c3)CSCCNC(=O)[C@]3(C)CCCN3C2=O)cc1 [Compound 425] (cyclo(DHY(Me)[αMeP][X4][Nle(6-COOH)][dA][Trp(5-F)][Trp(5-F)])),0.00011 to 0.1 µM
11,COc1ccc(C[C@@H]2NC(=O)[C@H](Cc3cnc[nH]3)NC(=O)[C@H](CC(=O)O)NC(=O)[C@H](Cc3c[nH]c4ccc(F)cc34)NC(=O)[C@H](Cc3c[nH]c4ccc(F)cc34)NC(=O)[C@@H](C)NC(=O)[C@H](CCCCCC(=O)O)NC(=O)CCSCc3cccc(c3)CSCCNC(=O)[C@]3(C)CCCN3C2=O)cc1 [Compound 426] (cyclo([Asu][dA][Trp(5-F)][Trp(5-F)]DHY(Me)[αMeP][X4])),1 to 12.1 µM
12,COc1ccc(C[C@@H]2NC(=O)[C@H](Cc3cnc[nH]3)NC(=O)[C@H](CC(=O)O)NC(=O)[C@H](Cc3c[nH]c4ccc(F)cc34)NC(=O)[C@H](Cc3c[nH]c4ccc(F)cc34)NC(=O)[C@@H](C)NC(=O)[C@H](CCCC(=O)O)NC(=O)CCSCc3cccc(c3)CSCCNC(=O)[C@]3(C)CCCN3C2=O)cc1 [Compound 427] (cyclo([Aad][dA][Trp(5-F)][Trp(5-F)]DHY(Me)[αMeP][X4])),21 to 50 µM
13,C[C@H]1NC(=O)[C@H](CCCCN)NC(=O)CCSCc2cccc(c2)CSC[C@@H](C(N)=O)NC(=O)[C@]2(C)CCCN2C(=O)[C@H](Cc2ccc(O)cc2)NC(=O)C2=CC=C(CNC(=O)[C@H](Cc3c[nH]c4ccc(F)cc34)NC(=O)[C@H](Cc3c[nH]c4ccc(F)cc34)NC1=O)O2 [Compound 429] ([Mpa]K[dA][Trp(5-F)][Trp(5-F)][2Furoyl(5-aminomethyl)]Y[αMeP]C-NH2; linker 1-9 via mXylylene),0.1 to 1 µM

# Second part, the molecule after the results:
row,IC50,SMILES
1,21 to 50 µM,CC(=O)N[C@H]1CNC(=O)COc2ccc(cc2)C[C@@H](C(N)=O)NC(=O)[C@]2(C)CCCN2C(=O)[C@H](Cc2ccc(O)cc2)NC(=O)[C@H](Cc2cnc[nH]2)NC(=O)[C@H](CC(=O)O)NC(=O)[C@H](Cc2c[nH]c3ccc(F)cc23)NC(=O)[C@H](Cc2c[nH]c3ccc(F)cc23)NC(=O)CNC(=O)[C@H](C)NC1=O [Compound 351] (Ac-[Dap]AG[Trp(5-F)][Trp(5-F)]DHY[αMeP]Y-NH2; linker 1-10 via X2)
2,21 to 50 µM,C[C@@]12CCCN1C(=O)[C@H](Cc1ccc(O)cc1)NC(=O)[C@H](Cc1cnc[nH]1)NC(=O)[C@H](CC(=O)O)NC(=O)[C@H](Cc1c[nH]c3ccc(F)cc13)NC(=O)[C@H](Cc1c[nH]c3ccc(F)cc13)NC(=O)CNC(=O)[C@@H](CCCN)NC(=O)CCSCc1cccc(c1)CSC[C@@H](C(N)=O)NC2=O [Compound 356] ([Mpa][dOrn]G[Trp(5-F)][Trp(5-F)]DHY[αMeP]C-NH2; linker 1-10 via mXylylene)
3,21 to 50 µM,CO[C@H](C)[C@@H]1NC(=O)CCSCc2cccc(c2)CSC[C@@H](C(N)=O)NC(=O)[C@]2(C)CCCN2C(=O)[C@H](Cc2ccc(O)cc2)NC(=O)[C@H](Cc2cnc[nH]2)NC(=O)[C@H](CC(=O)O)NC(=O)[C@H](Cc2c[nH]c3ccc(F)cc23)NC(=O)[C@H](Cc2c[nH]c3ccc(F)cc23)NC(=O)CNC1=O [Compound 375] ([Mpa]T(Me)G[Trp(5-F)][Trp(5-F)]DHY[αMeP]C-NH2; linker 1-10 via mXylylene)
4,21 to 50 µM,COc1ccc(C[C@@H]2NC(=O)[C@H](Cc3ncc[nH]3)NC(=O)[C@H](CC(=O)O)NC(=O)[C@H](Cc3c[nH]c4ccc(F)cc34)NC(=O)[C@H](Cc3c[nH]c4ccc(F)cc34)NC(=O)[C@@H](C)NC(=O)[C@H](C)NC(=O)CCSCc3cccc(c3)CSCCNC(=O)[C@]3(C)CCCN3C2=O)cc1 [Compound 407] (cyclo(A[dA][Trp(5-F)][Trp(5-F)]D[Ala(imidazol-2-yl)]Y(Me)[αMeP][X4]))
5,21 to 50 µM,COc1ccc(C[C@@H]2NC(=O)[C@H](Cc3cnc[nH]3)NC(=O)[C@H](CC(=O)O)NC(=O)[C@H](Cc3c[nH]c4ccc(F)cc34)NC(=O)[C@H](Cc3c[nH]c4ccc(F)cc34)NC(=O)[C@@H](C)NC(=O)Cc3cccc(c3)NC(=O)C[C@@H](C(=O)O)NC(=O)[C@]3(C)CCCN3C2=O)cc1 [Compound 413] ([Phac(3-amino)][dA][Trp(5-F)][Trp(5-F)]DHY(Me)[αMeP]D-OH; lactam N-9)
6,0.1 to 1 µM,C[C@@]12CCCN1C(=O)[C@H](Cc1ccc(O)cc1)NC(=O)[C@H](Cc1cnc[nH]1)NC(=O)[C@H](CC(=O)O)NC(=O)[C@H](Cc1c[nH]c3ccc(F)cc13)NC(=O)[C@H](Cc1c[nH]c3ccc(O)cc13)NC(=O)CNC(=O)[C@H](CCCCN)NC(=O)CCSCc1cccc(c1)CSC[C@@H](C(N)=O)NC2=O [Compound 414] ([Mpa]KG[Trp(5-OH)][Trp(5-F)]DHY[αMeP]C-NH2; linker 1-10 via mXylylene)
7,0.00011 to 0.1 µM,C[C@@]12CCCN1C(=O)[C@H](Cc1ccc(O)cc1)NC(=O)[C@H](Cc1cnc[nH]1)NC(=O)[C@H](CC(=O)O)NC(=O)[C@H](Cc1c[nH]c3ccc(O)cc13)NC(=O)[C@H](Cc1c[nH]c3ccc(O)cc13)NC(=O)CNC(=O)[C@H](CCCCN)NC(=O)CCSCc1cccc(c1)CSC[C@@H](C(N)=O)NC2=O [Compound 415] ([Mpa]KG[Trp(5-OH)][Trp(5-OH)]DHY[αMeP]C-NH2; linker 1-10 via mXylylene)
8,21 to 50 µM,C[C@@]12CCCN1C(=O)[C@H](Cc1ccc(O)cc1)NC(=O)[C@H](Cc1cnc[nH]1)NC(=O)[C@H](CC(=O)O)NC(=O)[C@H](Cc1c[nH]c3ccc(F)cc13)NC(=O)[C@H](Cc1c[nH]c3ccc(F)cc13)NC(=O)C1=CC=C(CNC(=O)CCSCc3cccc(c3)CSC[C@@H](C(N)=O)NC2=O)O1 [Compound 428] ([Mpa][2Furoyl(5-aminomethyl)][Trp(5-F)][Trp(5-F)]DHY[αMeP]C-NH2; linker 1-9 via mXylylene)
